Columns and labels:
[1] = target: E. coli leader peptidase (Escherichia coli, UniProt P00803); details: cited from earlier work
[2] = target: T1, Decanoyl-[…]OH
T1 chain: LTPTAKAASKIDD

[3] = target: T2, Octanoyl-[…]OH
T2 chain: LTPTAKAASKIDD

E. coli leader peptidase, sequence (P00803 whole entry): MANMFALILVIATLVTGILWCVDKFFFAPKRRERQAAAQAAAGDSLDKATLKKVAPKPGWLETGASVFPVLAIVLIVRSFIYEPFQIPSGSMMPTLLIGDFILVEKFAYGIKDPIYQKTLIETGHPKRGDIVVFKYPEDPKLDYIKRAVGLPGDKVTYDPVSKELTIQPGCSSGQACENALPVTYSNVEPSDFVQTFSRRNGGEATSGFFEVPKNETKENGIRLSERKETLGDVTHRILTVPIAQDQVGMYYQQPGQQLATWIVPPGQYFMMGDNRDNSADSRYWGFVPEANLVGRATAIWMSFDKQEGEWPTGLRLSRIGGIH

## ALAKI
[1]; Dev et al
  rate of turnover: very slow

## ASVAVATLVPMLSFAAEGDDPAK
[1]; versus parent M13 procoat protein, Dierstein and Wickner
  rate of cleavage: comparable to that of the parent

B1: S. aureus SpsB signal peptidase (protein)
chain: MKKELLEWIISIAVAFVILFIVGKFIVTPYTIKGESMDPTLKDGERVAVNIIGYKTGGLEKGNVVVFHANKNDDYVKRVIGVPGDKVEYKNDTLYVNGKKQDEPYLNYNLKHKQGDYITGTFQVKDLPNANPKSNVIPKGKYLVLGDNREVSKDSRAFGLIDEDQIVGKVSFRFWPFSEFKHNFNPENTKN
[2]
  processing after 30 minutes (HPLC/MS cleavage assay): >80% processing after 30 minutes
[3]
  processing after 30 minutes (HPLC/MS cleavage assay): >80% processing after 30 minutes
